Where two headings read alike, the source gives them in different places. Residues, ends and D or L forms follow the SMILES beside them.
System: Mortierella elongata AG77
Assay: Nitrogen source utilisation in Biolog 96-well plates, formazan formation after tetrazolium addition
Format: cell-based
Conditions: for Metabolized: Metabolized = more formazan formation than a control containing no nitrogen source, observed visually at 2 h, 24 h, 148 h; for Nitrogen sources that Mortierella elongata AG77 can metabolize: text summary of Table 4
Experimental: Two 300 mL volumes of growth medium comprising 1 g/L KH2PO4, 1 g/L MgSO4 7H2O, 0.1 g/L CaCl2, 0.02 g/L FeNaEDTA, 0.1 g/L NaCl, and either 1 g/L NH4NO3 or 20 g/L sucrose were prepared. […] Aliquots of 200 μL of carbon-free medium or nitrogen-free medium were pipetted into each well of a set of 96-well plates previously prepared with lyophilized putative carbon or nitrogen sources (Biolog Inc., Hayward, Calif.). Inocula were prepared by perforating a culture of Mortierella elongata AG77 grown on 20 g/L potato dextrose agar with a 3 mm diameter cork borer and separating the surface mycelial mat from the solid growth medium using tweezers. Each well was inoculated with one inoculum. Cultures were incubated at 21° C. for 24 hours to allow metabolic changes to stabilize, and then 100 μL of 3 g/L tetrazolium chloride in water was added to each well.
Conclusions were based on rate and intensity of formazan formation using the 3-(4,5-dimethylthiazol-2-yl)-2,5-diphenyltetrazolium bromide ([…]) assay. “Metabolized” indicates more formazan formation than a control containing no nitrogen source, and “Toxic” indicates less formazan formation than a control containing no nitrogen source, “Metabolized” and “Toxic” assignments are mutually exclusive. In this example, a compound may be “Metabolized” or “Toxic,” but not both.

[1] = compound as nitrogen source, Toxic = less formazan formation than a control containing no nitrogen source

Structure (SMILES) | Toxic | Metabolized (compound as nitrogen source) | Toxic [1] | Nitrogen sources that Mortierella elongata AG77 can metabolize
Nc1ncnc2nc[nH]c12 [Adenine] | no | no | – | –
CCCCN [N-Butylamine] | – | no | no | –
O=c1[nH]c(=O)c2[nH]c(=O)[nH]c2[nH]1 [Uric Acid] | – | no | no | –
C[C@H](N)C(=O)N[C@@H](CCC(=O)O)C(=O)O [Ala-Glu] (H-Ala-Glu-OH) | – | yes | no | can metabolize
O=C1NC(=O)C(=O)C(=O)N1 [Alloxan] | – | no | no | –
Cc1c[nH]c(=O)[nH]c1=O [Thymine] | no | no | – | –
CC(C)C[C@H](NC(=O)[C@H](C)N)C(=O)O [Ala-Leu] (H-Ala-Leu-OH) | – | yes | no | can metabolize
NC(=O)NCCC[C@H](N)C(=O)O [L-Citrulline] | – | no | no | –
NC=O [Formamide] | – | no | no | –
O=NO [Nitrite] | – | no | no | –
C[C@H](N)C(=O)N[C@@H](CCC(N)=O)C(=O)O [Ala-Gln] (H-Ala-Gln-OH) | – | yes | no | can metabolize
CSCC[C@H](NC(=O)CN)C(=O)O [Gly-Met] | – | no | no | –
Nc1nc2nc[nH]c2c(=O)[nH]1 [Guanine] | yes | no | – | –
CC(C)[C@@H](N)C(=O)O [D-Valine] | no | no | – | –
N [Ammonia] | no | no | – | –
NCC(=O)N[C@@H](CCC(N)=O)C(=O)O [Gly-Gln] (H-Gly-Gln-OH) | – | no | no | –
Nc1nc2c(ncn2[C@@H]2O[C@H](CO)[C@@H](O)[C@H]2O)c(=O)[nH]1 [Guanosine] | – | no | no | –

Structure (SMILES) | Toxic | Metabolized (compound as nitrogen source) | Toxic [1] | Nitrogen sources that Mortierella elongata AG77 can metabolize
C[C@H](N)C(=O)N[C@@H](Cc1cnc[nH]1)C(=O)O [Ala-His] (H-Ala-His-OH) | – | no | no | –
NC(N)=O [Urea] | – | no | no | –
N[C@@H](Cc1c[nH]c2ccccc12)C(=O)O [L-Tryptophan] | no | no | – | –
C[C@H](N)C(=O)N[C@H](C(=O)O)[C@@H](C)O [Ala-Thr] (H-Ala-Thr-OH) | – | no | no | –
C[C@H](N)C(=O)N[C@@H](CC(=O)O)C(=O)O [Ala-Asp] (H-Ala-Asp-OH) | – | yes | no | can metabolize
NO [Hydroxylamine] | – | no | – | –
CCC[C@H](N)C(=O)O [α-Amino-N-Valeric Acid] | – | no | no | –
N[C@@H](Cc1ccc(O)cc1)C(=O)O [L-Tyrosine] | – | no | no | –
Nc1ccn([C@@H]2O[C@H](CO)[C@@H](O)[C@H]2O)c(=O)n1 [Cytidine] | no | yes | – | can metabolize
CCN [Ethylamine] | – | no | no | –
N[C@H]1C(O)O[C@H](CO)[C@H](O)[C@@H]1O (stereo partly drawn) [D-Galactosamine] | no | no | – | –
NCCCC[C@@H](N)C(=O)O [D-Lysine] | no | no | – | –
NCCCCCC(=O)O [ε-Amino-N-Caproic Acid] | – | no | no | –
O=c1cc[nH]c(=O)[nH]1 [Uracil] | no | no | – | –
Nc1cc[nH]c(=O)n1 [Cytosine] | no | no | – | –
NC(=O)C[C@@H](N)C(=O)O [D-Asparagine] | no | no | – | –

Reference: patent US20200325505A1, “FILAMENTOUS FUNGI CAPABLE OF PRODUCING VERY LONG CHAIN FATTY ACIDS” (UT-Battelle, LLC, priority 2019, published 2020)
